Publication PMC6800772 (Molecular microbiology, 2019)
Counter-ions that a name gives are not always drawn.

Biological target: Pdr5 (Saccharomyces cerevisiae, UniProt P33302, A666G)
Assay: inhibition of R6G transport in whole cells
Assay type: cell-based

Chain of Pdr5 (P33302 whole entry A666G): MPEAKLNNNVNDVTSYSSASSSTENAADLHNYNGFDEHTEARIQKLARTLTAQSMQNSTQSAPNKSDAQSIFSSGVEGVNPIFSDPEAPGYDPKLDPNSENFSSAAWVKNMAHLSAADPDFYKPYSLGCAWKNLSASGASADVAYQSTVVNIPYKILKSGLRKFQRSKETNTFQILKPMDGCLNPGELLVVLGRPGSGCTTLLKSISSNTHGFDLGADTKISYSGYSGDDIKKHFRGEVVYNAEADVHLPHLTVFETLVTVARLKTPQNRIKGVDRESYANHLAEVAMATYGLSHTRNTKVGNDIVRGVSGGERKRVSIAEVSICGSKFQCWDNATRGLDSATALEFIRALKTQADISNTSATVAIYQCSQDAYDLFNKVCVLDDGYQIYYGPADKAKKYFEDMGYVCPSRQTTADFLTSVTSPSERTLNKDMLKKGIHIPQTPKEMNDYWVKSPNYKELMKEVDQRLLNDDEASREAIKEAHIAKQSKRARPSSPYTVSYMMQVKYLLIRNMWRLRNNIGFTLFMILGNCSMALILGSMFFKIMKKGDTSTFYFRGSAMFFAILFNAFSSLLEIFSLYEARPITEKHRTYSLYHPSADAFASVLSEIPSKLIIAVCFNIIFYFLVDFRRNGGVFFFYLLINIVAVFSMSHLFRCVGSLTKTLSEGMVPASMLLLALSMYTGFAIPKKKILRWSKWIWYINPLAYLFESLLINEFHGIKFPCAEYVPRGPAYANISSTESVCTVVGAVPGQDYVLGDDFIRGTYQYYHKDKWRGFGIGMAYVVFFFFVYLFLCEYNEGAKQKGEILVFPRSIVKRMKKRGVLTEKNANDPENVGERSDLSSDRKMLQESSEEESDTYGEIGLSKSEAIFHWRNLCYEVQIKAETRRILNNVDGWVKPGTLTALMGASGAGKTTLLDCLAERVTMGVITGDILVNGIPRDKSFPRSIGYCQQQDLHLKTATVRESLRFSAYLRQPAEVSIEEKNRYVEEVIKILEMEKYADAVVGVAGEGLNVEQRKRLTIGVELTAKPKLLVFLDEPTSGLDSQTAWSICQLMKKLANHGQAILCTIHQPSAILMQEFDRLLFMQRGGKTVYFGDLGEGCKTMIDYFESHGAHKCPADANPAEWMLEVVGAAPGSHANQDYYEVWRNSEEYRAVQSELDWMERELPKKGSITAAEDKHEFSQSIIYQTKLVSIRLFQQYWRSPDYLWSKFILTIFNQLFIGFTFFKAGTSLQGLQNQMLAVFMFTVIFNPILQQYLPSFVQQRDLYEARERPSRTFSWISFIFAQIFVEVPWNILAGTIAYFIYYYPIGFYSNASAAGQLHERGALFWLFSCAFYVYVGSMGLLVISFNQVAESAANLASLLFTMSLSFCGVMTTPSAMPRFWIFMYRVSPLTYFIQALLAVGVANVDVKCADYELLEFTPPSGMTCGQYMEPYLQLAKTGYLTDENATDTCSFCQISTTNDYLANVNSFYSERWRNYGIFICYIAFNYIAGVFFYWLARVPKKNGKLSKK

## C=CCOC(Cn1ccnc1)c1ccc(Cl)cc1Cl (stereo not shown) [imazalil sulfate]
  IC50: ~100 µM
